Source: patent US12448399B2, “Cereblon-based KRAS degrading PROTACs and uses related thereto” (Arvinas Operations, Inc., priority 2023, dated 2025)

Target: T1, KRas-G12D (Homo sapiens, UniProt P01116, G12D)
T1 construct: insert the HiBiT tag onto the N-terminus of one or more of the endogenous KRas alleles; host or cells: AsPC-1 HiBiT-KRasG12D knock-in clone (one tagged allele, two untagged KRasG12D alleles)
Assay: HiBiT Degradation Assay (G12D), AsPC-1 HiBiT-KRasG12D cells, 24 hr
Type: cell-based
Conditions: ASPC1, AsPC-1 cells, maximum degradation observed
Protocol: AsPC-1 (CRL-1682) cells were purchased from ATCC and are homozygous for the G12D mutation in KRas. AsPC-1 cells were cultured in GIBCO RPMI-1640 (ThermoFisher Scientific, catalog #61870-036, with Glutamax, no HEPES, no Na Pyruvate) supplemented with 10% FBS (ThermoFisher Scientific, catalog #2060357) and 1× Penicillin-Streptomycin (ThermoFisher Scientific, catalog #15140122, 10000 U/ml, 100×). For degradation assays, 384 well plates were used. Alamar blue was purchased from ThermoFisher Scientific (A50101) and used according to manufacturer instructions. The Nano-Glo® HiBiT Lytic Detection System and Nano-Glo® HiBiT Blotting System were purchased from Promega (#N3050 and #N2410) and used according to manufacturer instructions.
To create the AsPC-1 HiBiT-KRasG12D cell line, CRISPR-Cas9 was used to insert the HiBiT tag onto the N-terminus of one or more of the endogenous KRas alleles. See Schwinn, M. K. et al. (2018) CRISPR-mediated tagging of endogenous proteins with a luminescent peptide, ACS Chem. Biol. 13(2), 467-474. After knock-in of the tag, individual clones were isolated by single cell dilution and screened for HiBiT insertion by PCR. A clone was identified that contained the desired HiBiT-KRasG12D sequence at one allele while the remaining two KRasG12D alleles were untagged. This clone was used in further studies.
AsPC-1 HiBiT-KRasG12D cells were plated at 9000 or 15,000 cells/well in a 384 well plate (Corning #3770). Compounds of the present disclosure and positive controls were diluted in the appropriate cell media and applied to the plated cells resulting in a final concentration titration of 10 μM to […] in 0.5% DMSO. Gambogic acid was used as a positive control for cytotoxicity and titrated from 10 μM to 78 nM. All assays were performed in triplicate. Cells were treated with compounds for 24 hr at 37° C. in an incubator containing 5% CO2. Following treatment, alamar blue was used to determine if any compounds led to a loss in cell viability after 24 hr. The 10× alamar blue reagent was added to a final concentration of 1× as recommended by the manufacturer and cells were returned to the incubator for 4 hr. Plates were then allowed to equilibrate to RT and fluorescence was measured using a Perkin-Elmer EnVision. After completion of the fluorescence read, the liquid from each well was removed and the cells were washed with PBS. The Nano-Glo® HiBiT detection reagent was prepared according to the manufacturer's instructions and added to each well after the PBS wash was removed. Following incubation at room temperature for 45 min, the luminescence was read using the ultra-sensitive luminescence aperture on the Envision instrument.
Fluorescence values from the alamar blue treatment were normalized to the DMSO-only control for each compound titration. HiBiT luminescence was normalized to the DMSO-only control and the fractional HiBiT signal was plotted versus the log of the PROTAC concentration and fit to a 4-parameter dose-response model to obtain the concentration of the compound that leads to half maximal degradation (DC50) as well as the maximum degradation observed (Dmax, conventionally expressed as a percentage of control).

T1 sequence (P01116 1-188 isoform P01116-2 G12D): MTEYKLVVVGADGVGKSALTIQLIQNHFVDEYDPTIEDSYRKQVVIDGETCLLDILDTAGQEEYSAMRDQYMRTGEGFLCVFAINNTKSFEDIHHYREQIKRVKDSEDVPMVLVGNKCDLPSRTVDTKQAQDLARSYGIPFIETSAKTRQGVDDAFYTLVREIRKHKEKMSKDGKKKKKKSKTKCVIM

Structure (SMILES) | Dmax [%]
CCc1cccc2cc(O)cc(-c3ncc4c(N5CC6CCC(C5)N6)nc(OC[C@]56CCCN5[C@@H](COC(=O)N5CCN(c7cccc8c7CN(C7CCC(=O)N(C)C7=O)C8=O)CC5)CC6)nc4c3F)c12 (stereo partly drawn) [Compound 54, [(3R,8R)-8-[[4-(3,8-diazabicyclo[3.2.1]octan-3-yl)-7-(8-ethyl-3-hydroxy-1-naphthyl)-8-fluoro-pyrido[4,3-d]pyrimidin-2-yl]oxymethyl]-1,2,3,5,6,7-hexahydropyrrolizin-3-yl]methyl4-[2-(1-methyl-2,6-dioxo-3-piperidyl)-1-oxo-isoindolin-4-yl]piperazine-1-carboxylate] | ≤ 25

Same assay, conditions: AsPC-1 cells

Structure (SMILES) | DC50 [nM]
CCc1cccc2cc(O)cc(-c3ncc4c(N5CC6CCC(C5)N6)nc(OC[C@]56CCCN5[C@@H](COC(=O)N5CCN(c7ccc8c(c7)CN(C7CCC(=O)N(C)C7=O)C8=O)CC5)CC6)nc4c3F)c12 (stereo partly drawn) [Compound 53, [(3R,8R)-8-[[4-(3,8-diazabicyclo[3.2.1]octan-3-yl)-7-(8-ethyl-3-hydroxy-1-naphthyl)-8-fluoro-pyrido[4,3-d]pyrimidin-2-yl]oxymethyl]-1,2,3,5,6,7-hexahydropyrrolizin-3-yl]methyl4-[2-(1-methyl-2,6-dioxo-3-piperidyl)-1-oxo-isoindolin-5-yl]piperazine-1-carboxylate] | 100 to 5250
CCc1cccc2cc(O)cc(-c3ncc4c(N5CC6CCC(C5)N6)nc(OC[C@]56CCCN5[C@@H](COC(=O)N5CCN(c7cccc8c7CN(C7CCC(=O)N(C)C7=O)C8=O)CC5)CC6)nc4c3F)c12 (stereo partly drawn) [Compound 54, [(3R,8R)-8-[[4-(3,8-diazabicyclo[3.2.1]octan-3-yl)-7-(8-ethyl-3-hydroxy-1-naphthyl)-8-fluoro-pyrido[4,3-d]pyrimidin-2-yl]oxymethyl]-1,2,3,5,6,7-hexahydropyrrolizin-3-yl]methyl4-[2-(1-methyl-2,6-dioxo-3-piperidyl)-1-oxo-isoindolin-4-yl]piperazine-1-carboxylate] | 250 to 1000
CCc1cccc2cc(O)cc(-c3ncc4c(N5CC6CCC(C5)N6)nc(OCCN5CCC(CC6CCN(CC7CCN(c8cccc9c8CN(C8CCC(=O)NC8=O)C9=O)CC7)CC6)CC5)nc4c3F)c12 (centres unmarked) [Compound 55, 3-[4-[4-[[4-[[1-[2-[4-(3,8-diazabicyclo[3.2.1]octan-3-yl)-7-(8-ethyl-3-hydroxy-1-naphthyl)-8-fluoro-pyrido[4,3-d]pyrimidin-2-yl]oxyethyl]-4-piperidyl]methyl]-1-piperidyl]methyl]-1-piperidyl]-1-oxo-isoindolin-2-yl]piperidine-2,6-dione] | < 5100
CCc1cccc2cc(O)cc(-c3ncc4c(N5CC6CCC(C5)N6)nc(OCCN5CCC(CC6CCN(c7cccc8c7CN(C7CCC(=O)NC7=O)C8=O)CC6)CC5)nc4c3F)c12 (centres unmarked) [Compound 56, 3-[4-[4-[[1-[2-[4-(3,8-diazabicyclo[3.2.1]octan-3-yl)-7-(8-ethyl-3-hydroxy-1-naphthyl)-8-fluoro-pyrido[4,3-d]pyrimidin-2-yl]oxyethyl]-4-piperidyl]methyl]-1-piperidyl]-1-oxo-isoindolin-2-yl]piperidine-2,6-dione] | 250 to 1000
CCc1cccc2cc(O)cc(-c3ncc4c(N5CC6CCC(C5)N6)nc(OCCN5CCC(CC6CCN(CC7CCN(c8cccc9c8C(=O)N(C8CCC(=O)NC8=O)C9=O)CC7)CC6)CC5)nc4c3F)c12 (centres unmarked) [Compound 57, 4-[4-[[4-[[1-[2-[4-(3,8-diazabicyclo[3.2.1]octan-3-yl)-7-(8-ethyl-3-hydroxy-1-naphthyl)-8-fluoro-pyrido[4,3-d]pyrimidin-2-yl]oxyethyl]-4-piperidyl]methyl]-1-piperidyl]methyl]-1-piperidyl]-2-(2,6-dioxo-3-piperidyl)isoindoline-1,3-dione] | 100 to 5250
CCc1cccc2cc(O)cc(-c3ncc4c(N5CC6CCC(C5)N6)nc(OC[C@@]56CCCN5[C@H](COC(=O)N5CCN(c7ccc8c(c7)CN(C7CCC(=O)NC7=O)C8=O)CC5)CC6)nc4c3F)c12 (stereo partly drawn) [Compound 58, [(3S,8S)-8-[[4-(3,8-diazabicyclo[3.2.1]octan-3-yl)-7-(8-ethyl-3-hydroxy-1-naphthyl)-8-fluoro-pyrido[4,3-d]pyrimidin-2-yl]oxymethyl]-1,2,3,5,6,7-hexahydropyrrolizin-3-yl]methyl 4-[2-(2,6-dioxo-3-piperidyl)-1-oxo-isoindolin-5-yl]piperazine-1-carboxylate] | < 5100
CCc1cccc2cc(O)cc(-c3ncc4c(N5CC6CCC(C5)N6)nc(OC[C@]56CCCN5[C@@H](COC(=O)N5CCN(c7ccc8c(c7)CN(C7CCC(=O)NC7=O)C8=O)CC5)CC6)nc4c3F)c12 (stereo partly drawn) [Compound 59, [(3R,8R)-8-[[4-(3,8-diazabicyclo[3.2.1]octan-3-yl)-7-(8-ethyl-3-hydroxy-1-naphthyl)-8-fluoro-pyrido[4,3-d]pyrimidin-2-yl]oxymethyl]-1,2,3,5,6,7-hexahydropyrrolizin-3-yl]methyl 4-[2-(2,6-dioxo-3-piperidyl)-1-oxo-isoindolin-5-yl]piperazine-1-carboxylate] | < 5100
CCc1cccc2cc(O)cc(-c3ncc4c(N5CC6CCC(C5)N6)nc(OC[C@@]56CCCN5[C@H](COC(=O)N5CCN(c7cccc8c7CN(C7CCC(=O)NC7=O)C8=O)CC5)CC6)nc4c3F)c12 (stereo partly drawn) [Compound 60, [(3S,8S)-8-[[4-(3,8-diazabicyclo[3.2.1]octan-3-yl)-7-(8-ethyl-3-hydroxy-1-naphthyl)-8-fluoro-pyrido[4,3-d]pyrimidin-2-yl]oxymethyl]-1,2,3,5,6,7-hexahydropyrrolizin-3-yl]methyl 4-[2-(2,6-dioxo-3-piperidyl)-1-oxo-isoindolin-4-yl]piperazine-1-carboxylate] | 100 to 5250
CCc1cccc2cc(O)cc(-c3ncc4c(N5CC6CCC(C5)N6)nc(OC[C@]56CCCN5[C@@H](COC(=O)N5CCN(c7cccc8c7CN(C7CCC(=O)NC7=O)C8=O)CC5)CC6)nc4c3F)c12 (stereo partly drawn) [Compound 61, [(3R,8R)-8-[[4-(3,8-diazabicyclo[3.2.1]octan-3-yl)-7-(8-ethyl-3-hydroxy-1-naphthyl)-8-fluoro-pyrido[4,3-d]pyrimidin-2-yl]oxymethyl]-1,2,3,5,6,7-hexahydropyrrolizin-3-yl]methyl 4-[2-(2,6-dioxo-3-piperidyl)-1-oxo-isoindolin-4-yl]piperazine-1-carboxylate] | 250 to 1000
CCc1cccc2cc(O)cc(-c3ncc4c(N5CC6CCC(C5)N6)nc(OC[C@@]56CCCN5[C@H](COC(=O)N5CCN(c7ccc8c(c7)C(=O)N(C7CCC(=O)NC7=O)C8=O)CC5)CC6)nc4c3F)c12 (stereo partly drawn) [Compound 62, [(3S,8S)-8-[[4-(3,8-diazabicyclo[3.2.1]octan-3-yl)-7-(8-ethyl-3-hydroxy-1-naphthyl)-8-fluoro-pyrido[4,3-d]pyrimidin-2-yl]oxymethyl]-1,2,3,5,6,7-hexahydropyrrolizin-3-yl]methyl4-[2-(2,6-dioxo-3-piperidyl)-1,3-dioxo-isoindolin-5-yl]piperazine-1-carboxylate] | < 5100
CCc1cccc2cc(O)cc(-c3ncc4c(N5CC6CCC(C5)N6)nc(OC[C@]56CCCN5[C@@H](COC(=O)N5CCN(c7ccc8c(c7)C(=O)N(C7CCC(=O)NC7=O)C8=O)CC5)CC6)nc4c3F)c12 (stereo partly drawn) [Compound 63, [(3R,8R)-8-[[4-(3,8-diazabicyclo[3.2.1]octan-3-yl)-7-(8-ethyl-3-hydroxy-1-naphthyl)-8-fluoro-pyrido[4,3-d]pyrimidin-2-yl]oxymethyl]-1,2,3,5,6,7-hexahydropyrrolizin-3-yl]methyl4-[2-(2,6-dioxo-3-piperidyl)-1,3-dioxo-isoindolin-5-yl]piperazine-1-carboxylate] | 250 to 1000
CCc1cccc2cc(O)cc(-c3ncc4c(N5CC6CCC(C5)N6)nc(OC[C@@]56CCCN5[C@H](COC(=O)N5CCN(c7cccc8c7C(=O)N(C7CCC(=O)NC7=O)C8=O)CC5)CC6)nc4c3F)c12 (stereo partly drawn) [Compound 64, [(3S,8S)-8-[[4-(3,8-diazabicyclo[3.2.1]octan-3-yl)-7-(8-ethyl-3-hydroxy-1-naphthyl)-8-fluoro-pyrido[4,3-d]pyrimidin-2-yl]oxymethyl]-1,2,3,5,6,7-hexahydropyrrolizin-3-yl]methyl 4-[2-(2,6-dioxo-3-piperidyl)-1,3-dioxo-isoindolin-4-yl]piperazine-1-carboxylate] | 100 to 5250
CCc1cccc2cc(O)cc(-c3ncc4c(N5CC6CCC(C5)N6)nc(OC[C@]56CCCN5[C@@H](COC(=O)N5CCN(c7cccc8c7C(=O)N(C7CCC(=O)NC7=O)C8=O)CC5)CC6)nc4c3F)c12 (stereo partly drawn) [Compound 65, [(3R,8R)-8-[[4-(3,8-diazabicyclo[3.2.1]octan-3-yl)-7-(8-ethyl-3-hydroxy-1-naphthyl)-8-fluoro-pyrido[4,3-d]pyrimidin-2-yl]oxymethyl]-1,2,3,5,6,7-hexahydropyrrolizin-3-yl]methyl 4-[2-(2,6-dioxo-3-piperidyl)-1,3-dioxo-isoindolin-4-yl]piperazine-1-carboxylate] | 250 to 1000
